Holding throughout (assay): relative viability (nuclei count vs DMSO), 5 days (fraction); higher = more cells survive
Compound in experiment [1]: COc1ccc(-c2ccc3c(N4CCOC[C@@H]4C)nc(N4CCOC[C@@H]4C)nc3n2)cc1CO [AZD8055] + C[C@@H](Oc1cc(-c2cnn(C3CCNCC3)c2)cnc1N)c1c(Cl)ccc(F)c1Cl [Crizotinib] (partner 1 µM)
The method, boiled down: (§1)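 Five library-drug doses in √10 steps were combined with a fixed anchor-drug dose, or a single drug was given alone, by pin tool to lung cancer cell lines in 1536-well plates the day after seeding. Nuclei were stained and counted after 5 days. Relative viability is the nuclei count in treated wells over that in vehicle wells, taken as the median of duplicate plates.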

Compound in experiment [2]: COc1ccc(-c2ccc3c(N4CCOC[C@@H]4C)nc(N4CCOC[C@@H]4C)nc3n2)cc1CO [AZD8055] + O=C(CCCCCCC(=O)Nc1ccccc1)NO [Vorinostat] (partner 1 µM)
The method, boiled down: as §1

Compound in experiment [3]: COc1ccc(-c2ccc3c(N4CCOC[C@@H]4C)nc(N4CCOC[C@@H]4C)nc3n2)cc1CO [AZD8055] + CC(=O)c1c(C)c2cnc(Nc3ccc(N4CCNCC4)cn3)nc2n(C2CCCC2)c1=O [Palbociclib] (partner 0.5 µM)
A digest of the protocol: as §1

Compound in experiment [4]: COc1ccc(-c2ccc3c(N4CCOC[C@@H]4C)nc(N4CCOC[C@@H]4C)nc3n2)cc1CO [AZD8055] + NC(=O)Nc1cc(-c2cccc(F)c2)sc1C(=O)N[C@H]1CCCNC1 [AZD7762] (partner 0.2 µM)
A digest of the protocol:
as §1

On to NCI-H1437, for which the relative viability is 0.946 in experiment [1] (first compound 0.01 µM); 0.963 in experiment [1] (first compound 0.03162 µM); 0.899 in experiment [1] (first compound 0.1 µM); 0.337 in experiment [1] (first compound 0.3162 µM); 0.19 in experiment [1] (first compound 1 µM); 0.914 in experiment [2] (first compound 0.01 µM). In addition, the relative viability is 0.786 in experiment [2] (first compound 0.03162 µM); 0.708 in experiment [2] (first compound 0.1 µM); 0.512 in experiment [2] (first compound 0.3162 µM); 0.311 in experiment [2] (first compound 1 µM); 0.358 in experiment [3] (first compound 0.01 µM); 0.434 in experiment [3] (first compound 0.03162 µM). The relative viability was found to be 0.338 in experiment [3] (first compound 0.1 µM); 0.221 in experiment [3] (first compound 0.3162 µM); 0.203 in experiment [3] (first compound 1 µM); 1.16 in experiment [4] (first compound 0.01 µM); 1.1 in experiment [4] (first compound 0.03162 µM); 1.12 in experiment [4] (first compound 0.1 µM). The relative viability in experiment [4] (first compound 0.3162 µM) came out at 0.568; in experiment [4] (first compound 1 µM), 0.494.

For NCI-H1651, the relative viability in experiment [1] (first compound 0.01 µM) was found to be 0.896; in experiment [1] (first compound 0.03162 µM), 0.738; in experiment [1] (first compound 0.1 µM), 0.786; in experiment [1] (first compound 0.3162 µM), 0.633; in experiment [1] (first compound 1 µM) it was 0.529; in experiment [2] (first compound 0.01 µM), 0.59. Further, the relative viability in experiment [2] (first compound 0.03162 µM) was determined as 0.526; in experiment [2] (first compound 0.1 µM), 0.552; in experiment [2] (first compound 0.3162 µM), 0.411; in experiment [2] (first compound 1 µM), 0.351; in experiment [3] (first compound 0.01 µM), 0.507; in experiment [3] (first compound 0.03162 µM), 0.472. Also, the relative viability in experiment [3] (first compound 0.1 µM) worked out at 0.478; in experiment [3] (first compound 0.3162 µM), 0.298; in experiment [3] (first compound 1 µM), 0.253; in experiment [4] (first compound 0.01 µM), 0.499; in experiment [4] (first compound 0.03162 µM) it was 0.431; in experiment [4] (first compound 0.1 µM), 0.424. Also, the relative viability in experiment [4] (first compound 0.3162 µM) came to 0.237; in experiment [4] (first compound 1 µM), 0.161.

Regarding NCI-H1666, the relative viability in experiment [1] (first compound 0.01 µM) was determined as 0.936; in experiment [1] (first compound 0.03162 µM) it was 1.01; in experiment [1] (first compound 0.1 µM), 0.812; in experiment [1] (first compound 0.3162 µM), 0.648; in experiment [1] (first compound 1 µM) it was 0.465; in experiment [2] (first compound 0.01 µM) it was 0.933. Also, the relative viability in experiment [2] (first compound 0.03162 µM) was determined as 1.07; in experiment [2] (first compound 0.1 µM), 0.892; in experiment [2] (first compound 0.3162 µM), 0.856; in experiment [2] (first compound 1 µM), 0.736; in experiment [3] (first compound 0.01 µM) it was 0.669; in experiment [3] (first compound 0.03162 µM) it was 0.643. Moreover, the relative viability amounted to 0.624 in experiment [3] (first compound 0.1 µM); 0.652 in experiment [3] (first compound 0.3162 µM); 0.674 in experiment [3] (first compound 1 µM); 0.945 in experiment [4] (first compound 0.01 µM); 1.09 in experiment [4] (first compound 0.03162 µM); 0.908 in experiment [4] (first compound 0.1 µM). For the same cell line, the relative viability came out at 0.76 in experiment [4] (first compound 0.3162 µM) and 0.698 in experiment [4] (first compound 1 µM).

Regarding NCI-H1734, the relative viability in experiment [1] (first compound 0.01 µM) was 0.734; in experiment [1] (first compound 0.03162 µM) it was 0.587; in experiment [1] (first compound 0.1 µM) it was 0.472; in experiment [1] (first compound 0.3162 µM), 0.256; in experiment [1] (first compound 1 µM), 0.282; in experiment [2] (first compound 0.01 µM), 0.822. Further, the relative viability in experiment [2] (first compound 0.03162 µM) came to 0.571; in experiment [2] (first compound 0.1 µM), 0.506; in experiment [2] (first compound 0.3162 µM) it was 0.303; in experiment [2] (first compound 1 µM), 0.246; in experiment [3] (first compound 0.01 µM) it was 0.378; in experiment [3] (first compound 0.03162 µM), 0.386. Besides, the relative viability in experiment [3] (first compound 0.1 µM) was 0.288; in experiment [3] (first compound 0.3162 µM) it was 0.215; in experiment [3] (first compound 1 µM) it was 0.192; in experiment [4] (first compound 0.01 µM) it was 0.549; in experiment [4] (first compound 0.03162 µM), 0.361; in experiment [4] (first compound 0.1 µM), 0.273. Also, the relative viability was found to be 0.181 in experiment [4] (first compound 0.3162 µM) and 0.15 in experiment [4] (first compound 1 µM).

Take NCI-H1755: the relative viability in experiment [1] (first compound 0.01 µM) was found to be 0.824; in experiment [1] (first compound 0.03162 µM), 0.762; in experiment [1] (first compound 0.1 µM), 0.652; in experiment [1] (first compound 0.3162 µM), 0.397; in experiment [1] (first compound 1 µM), 0.393; in experiment [2] (first compound 0.01 µM), 0.64. Also, the relative viability stood at 0.613 in experiment [2] (first compound 0.03162 µM); 0.57 in experiment [2] (first compound 0.1 µM); 0.423 in experiment [2] (first compound 0.3162 µM); 0.366 in experiment [2] (first compound 1 µM); 0.42 in experiment [3] (first compound 0.01 µM); 0.44 in experiment [3] (first compound 0.03162 µM). Further, the relative viability is 0.388 in experiment [3] (first compound 0.1 µM); 0.368 in experiment [3] (first compound 0.3162 µM); 0.359 in experiment [3] (first compound 1 µM); 0.625 in experiment [4] (first compound 0.01 µM); 0.401 in experiment [4] (first compound 0.03162 µM); 0.416 in experiment [4] (first compound 0.1 µM). The values for the relative viability in experiment [4] (first compound 0.3162 µM) and in experiment [4] (first compound 1 µM) were 0.364 and 0.33, respectively.

For NCI-H1915, the relative viability was found to be 0.922 in experiment [1] (first compound 0.01 µM); 0.822 in experiment [1] (first compound 0.03162 µM); 0.901 in experiment [1] (first compound 0.1 µM); 0.642 in experiment [1] (first compound 0.3162 µM); 0.422 in experiment [1] (first compound 1 µM); 0.486 in experiment [2] (first compound 0.01 µM). Moreover, the relative viability was determined as 0.36 in experiment [2] (first compound 0.03162 µM); 0.419 in experiment [2] (first compound 0.1 µM); 0.284 in experiment [2] (first compound 0.3162 µM); 0.246 in experiment [2] (first compound 1 µM); 0.491 in experiment [3] (first compound 0.01 µM); 0.44 in experiment [3] (first compound 0.03162 µM). Besides, the relative viability in experiment [3] (first compound 0.1 µM) is 0.425; in experiment [3] (first compound 0.3162 µM), 0.282; in experiment [3] (first compound 1 µM), 0.203; in experiment [4] (first compound 0.01 µM) it was 0.777; in experiment [4] (first compound 0.03162 µM), 0.48; in experiment [4] (first compound 0.1 µM), 0.686. Moreover, the values for the relative viability in experiment [4] (first compound 0.3162 µM) and in experiment [4] (first compound 1 µM) were 0.425 and 0.454, respectively.

On to NCI-H1944, for which the relative viability in experiment [1] (first compound 0.01 µM) worked out at 1.09; in experiment [1] (first compound 0.03162 µM), 0.918; in experiment [1] (first compound 0.1 µM) it was 0.973; in experiment [1] (first compound 0.3162 µM) it was 0.427; in experiment [1] (first compound 1 µM), 0.343; in experiment [2] (first compound 0.01 µM), 0.518. Besides, the relative viability in experiment [2] (first compound 0.03162 µM) came out at 0.431; in experiment [2] (first compound 0.1 µM), 0.422; in experiment [2] (first compound 0.3162 µM) it was 0.223; in experiment [2] (first compound 1 µM) it was 0.207; in experiment [3] (first compound 0.01 µM), 0.291; in experiment [3] (first compound 0.03162 µM) it was 0.264. For the same cell line, the relative viability in experiment [3] (first compound 0.1 µM) came to 0.22; in experiment [3] (first compound 0.3162 µM), 0.174; in experiment [3] (first compound 1 µM), 0.152; in experiment [4] (first compound 0.01 µM), 0.455; in experiment [4] (first compound 0.03162 µM) it was 0.453; in experiment [4] (first compound 0.1 µM) it was 0.393. The relative viability was 0.268 in experiment [4] (first compound 0.3162 µM) and 0.202 in experiment [4] (first compound 1 µM).

(Values after the supplement of paper PMC10307832.)
